Experimental findings from ChEMBL document CHEMBL1201862, “PubChem BioAssay data set” (2004) are described below.

Each structure is given as a SMILES string.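 Following 48 hours of exposure in 96-well plates, responses at five concentrations were used to interpolate endpoints linearly. GI50 = concentration required for 50% inhibition of growth.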 Active and inactive are the calls of the source. Rule as the data show it: active = GI50 up to about 1.1 µM and inactive = higher.

Some test systems named below: CCRF-CEM; HCT-15; HL-60; HT-29; IGROV-1; LOX IMVI; MDA-N; Malme-3M; NCI-H226; NCI-H23; OVCAR-4; SF-268; SK-MEL-28; SK-MEL-5; SN12C; SW-620; HOP-62; RXF 393.
What all share (assay): DTP human tumour cell line panel, 48 h

In the case of `CC1(C)CC(=O)C(CC(C(=O)C(=O)Nc2cc(C(F)(F)F)ccc2Cl)C(=O)c2ccco2)C(=O)C1` (centres undefined), the GI50 (commonly the concentration giving 50% growth inhibition) in the test on CCRF-CEM was > 100 µM (inactive); with HCT-15 it was greater than 100 µM; in the test on HL-60, > 100 µM (inactive); in the test with HT-29, > 100 µM (inactive); in the test with IGROV-1, > 100 µM (inactive); with LOX IMVI, > 100 µM (inactive). Besides, the GI50 with MDA-N, in the test on Malme-3M, in the test with NCI-H226, with NCI-H23, in the test on OVCAR-4 and with SF-268 was > 100 µM (inactive) in each case. Further, the GI50 in the test on SK-MEL-28, in the test on SK-MEL-5, in the test on SN12C and in the test with SW-620 was > 100 µM (inactive) each time.
Turning to `CC1(C)S[C@@H]2[C@H](N3C(=O)c4ccccc4C3=O)CN2[C@H]1NC(=O)N[C@@H]1N2C[C@@H](N3C(=O)c4ccccc4C3=O)[C@H]2SC1(C)C`, the GI50 with CCRF-CEM was > 100 µM (inactive); with HCT-15, greater than 100 µM; in the test with HL-60, > 100 µM (inactive); in the test with HOP-62, 48.8 µM (inactive); in the test with HT-29, > 100 µM (inactive); with IGROV-1, > 100 µM (inactive). For the same compound, the GI50 in the test with LOX IMVI is > 100 µM (inactive); in the test on Malme-3M, > 100 µM (inactive); with NCI-H226, > 100 µM (inactive); with NCI-H23, > 100 µM (inactive); with OVCAR-4 it was > 100 µM (inactive); with RXF 393 it was 45.3 µM (inactive). Besides, the GI50 is 28.9 µM (inactive) with SF-268; > 100 µM (inactive) in the test on SK-MEL-28; > 100 µM (inactive) in the test with SK-MEL-5; > 100 µM (inactive) with SN12C; > 100 µM (inactive) in the test on SW-620.
As to `COC1=N[C@H](C(C)C)C(OC)=N[C@H]1Cc1ccc(C[C@@H]2N=C(OC)[C@@H](C(C)C)N=C2OC)s1`, the GI50 was 19.5 µM (inactive) in the test on CCRF-CEM; 46.1 µM with HCT-15; 54.8 µM (inactive) in the test with HOP-62; 26.2 µM (inactive) in the test with HT-29; > 100 µM (inactive) with IGROV-1; 48.6 µM (inactive) with LOX IMVI. Further, the GI50 in the test on MDA-N was 49.3 µM (inactive); in the test on Malme-3M, 22.6 µM (inactive); in the test with NCI-H23, 25.1 µM (inactive); with OVCAR-4, 37.7 µM (inactive); with SF-268, 67.8 µM (inactive); with SK-MEL-28, 34.7 µM (inactive). Moreover, the GI50 with SK-MEL-5 was 20.8 µM (inactive); in the test on SN12C, 43.3 µM (inactive); in the test on SW-620, 39.9 µM (inactive).
Take `O=C(NCCNCCO)N/N=C/c1ccc([N+](=O)[O-])cc1`: the GI50 in the test with CCRF-CEM is > 100 µM (inactive); in the test on HCT-15 it was greater than 100 µM; with HL-60, > 100 µM (inactive); with HOP-62 it was > 100 µM (inactive); in the test on HT-29, > 100 µM (inactive); in the test on IGROV-1, > 100 µM (inactive). Also, the GI50 was 61.4 µM (inactive) with MDA-N; 43.8 µM (inactive) in the test on Malme-3M; > 100 µM (inactive) in the test on NCI-H226; > 100 µM (inactive) in the test on NCI-H23; > 100 µM (inactive) in the test with SF-268; > 100 µM (inactive) in the test with SK-MEL-28. Further, the GI50 in the test on SK-MEL-5, in the test on SN12C and with SW-620 was > 100 µM (inactive) each time.
In the case of `O=C(/C=C/c1ccc2ccccc2c1)NCc1ccc(C(=O)NCc2ccccc2)cc1`, the GI50 in the test on CCRF-CEM was > 93.3 µM (inactive); in the test with HL-60, 14.7 µM (inactive); in the test on HOP-62, 14.2 µM (inactive); in the test on HT-29, 35.7 µM (inactive); with IGROV-1, > 70 µM (inactive); with LOX IMVI, > 100 µM (inactive). Further, the GI50 with Malme-3M is > 35.8 µM (inactive); in the test with NCI-H226, 26.3 µM (inactive); with NCI-H23 it was > 83.4 µM (inactive); with OVCAR-4, 8.53 µM (inactive); with RXF 393, 41.8 µM (inactive); in the test with SF-268 it was 36.5 µM (inactive). The GI50 in the test with SK-MEL-28 was > 100 µM (inactive); in the test on SK-MEL-5, 98.9 µM (inactive); in the test on SN12C, > 100 µM (inactive); in the test with SW-620, > 100 µM (inactive).
`CC(=O)c1cc(C)n2c1CS[C@@H]2c1ccccc1`: the GI50 in the test with CCRF-CEM is 16.3 µM (inactive); in the test with HCT-15 it was 31.3 µM; with HL-60, 34 µM (inactive); with HOP-62, 83.9 µM (inactive); in the test on HT-29, 46.3 µM (inactive); in the test on IGROV-1, 32.7 µM (inactive). Further, the GI50 is 26.3 µM (inactive) in the test with LOX IMVI; > 100 µM (inactive) in the test on Malme-3M; 41 µM (inactive) with NCI-H226; 65.6 µM (inactive) in the test on NCI-H23; 59.7 µM (inactive) in the test with OVCAR-4; 31.5 µM (inactive) in the test on RXF 393. Moreover, the GI50 in the test with SF-268 was 90.2 µM (inactive); with SK-MEL-28, > 100 µM (inactive); with SK-MEL-5 it was 32.2 µM (inactive); with SN12C, 57.3 µM (inactive); with SW-620 it was 33.7 µM (inactive).
Regarding `CC(C)(C)OC(=O)CN1CCNCCN(CC(=O)OC(C)(C)C)CC1`, the GI50 in the test on CCRF-CEM is > 100 µM (inactive); in the test on HCT-15, greater than 100 µM; in the test with HL-60, 19.2 µM (inactive); in the test on HOP-62, > 100 µM (inactive); in the test with HT-29, 44.3 µM (inactive); in the test with IGROV-1, > 100 µM (inactive). Besides, the GI50 in the test on LOX IMVI is > 100 µM (inactive); with MDA-N it was > 100 µM (inactive); with Malme-3M, 0.731 µM (active); in the test on NCI-H226 it was > 100 µM (inactive); in the test on OVCAR-4 it was > 100 µM (inactive); in the test with SK-MEL-5, > 100 µM (inactive). For the same compound, the GI50 in the test with SN12C is > 100 µM (inactive).
`COc1ccc(N(CN2C(=O)CCC2C(=O)O)C(C)=O)cc1` (centres undefined): the GI50 in the test on CCRF-CEM was > 100 µM (inactive); in the test on HCT-15, greater than 100 µM; in the test on HL-60 it was > 100 µM (inactive); in the test with HOP-62 it was > 100 µM (inactive); in the test with HT-29 it was > 100 µM (inactive); in the test with LOX IMVI, > 100 µM (inactive). The GI50 with MDA-N, in the test with Malme-3M, with NCI-H226, with NCI-H23, in the test with OVCAR-4 and in the test on SF-268 was > 100 µM (inactive) in each case. Moreover, the GI50 in the test on SK-MEL-28, with SK-MEL-5, in the test with SN12C and with SW-620 was > 100 µM (inactive) in each case.
Take `COC1OC(=O)C(OC)C(OC)C1OC` (centres undefined): the GI50 in the test with HCT-15 is greater than 100 µM; with HL-60, > 100 µM (inactive); in the test with HOP-62 it was > 100 µM (inactive); with HT-29, > 100 µM (inactive); in the test with IGROV-1, > 100 µM (inactive); in the test with LOX IMVI, > 100 µM (inactive). Besides, the GI50 in the test on MDA-N, with NCI-H226, with OVCAR-4, with SF-268, in the test on SK-MEL-28 and in the test on SK-MEL-5 was > 100 µM (inactive) each time. The GI50 with SN12C and in the test with SW-620 was > 100 µM (inactive) each time.
